Assay results taken from patent US20250099420A1, “SMALL MOLECULE MODULATORS OF GPR139 COMPLEX” (University of Florida Research Foundation, Incorporated, priority 2022, published 2025).
Read-outs that look alike come from different tables or passages of the source.

Experiments:
GPR139 = molecular target: T1, GPR139 (Homo sapiens, UniProt Q6DWJ6); assay: GPR139 Agonist titration / agonist counterscreen assay (calcium detection, HEK-GPR139 cells); format: cell-based; set-up: expressed in transfected cells; host or cells: HEK Aequorin cells, Maxcyte transient transfection; details: GPR139 Agonist Activity; for Averaged Max % Response (±St. Dev.): activity relative to known control; for EC50: read-out: EC50
T1 sequence (Q6DWJ6 1-353): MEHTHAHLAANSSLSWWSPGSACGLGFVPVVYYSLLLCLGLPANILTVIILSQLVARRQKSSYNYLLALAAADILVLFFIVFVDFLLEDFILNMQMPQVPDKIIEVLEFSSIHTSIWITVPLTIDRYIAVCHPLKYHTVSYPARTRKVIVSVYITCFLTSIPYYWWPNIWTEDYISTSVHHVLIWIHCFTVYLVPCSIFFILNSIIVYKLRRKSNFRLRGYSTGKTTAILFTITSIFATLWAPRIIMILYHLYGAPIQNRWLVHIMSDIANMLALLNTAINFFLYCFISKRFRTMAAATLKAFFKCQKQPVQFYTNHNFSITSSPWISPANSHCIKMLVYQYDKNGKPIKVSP
Protocol: GPR activity was assessed using a calcium detection assay. […] Negative control samples were treated with DMSO. […] Intracellular calcium was measured using Calcium 5.

parental HEK cells = assay: HEK parental Agonist Counterscreen Assay (non-transfected cells); format: cell-based; details: for Averaged Max % Response (±St. Dev.): activity relative to known control
Text: The high control for the agonist counterscreen was Forskolin not acetylcholine.

[1] = Homo sapiens, HEK293, HEK Agonist Activity section of Table 4 (parental HEK counterscreen)
[2] = values printed in E-notation without unit
[3] = Homo sapiens, HEK293, HEK Agonist Activity, parental non-transfected HEK cells
[4] = HEK Agonist Activity section of Table 4 (parental HEK counterscreen)

Compound	Averaged Max % Response (±St. Dev.) (GPR139) [%]	Lipophilic Efficiency (logD) (parental HEK cells; HEK Agonist Activity section)	Lipophilic Efficiency (logP) (parental HEK cells; HEK Agonist Activity section)	Averaged Max % Response (±St. Dev.) (parental HEK cells; HEK Agonist Activity section) [%]	EC50 (parental HEK cells; [1]) [nM]	Lipophilic Efficiency (logD) (GPR139; based on logD)	Lipophilic Efficiency (logP) (GPR139; based on logP)	Hill Slope (GPR139; fitted dose-response curve)	Efficiency Ligand (GPR139; ligand efficiency)	EC50 (GPR139; [2]) [nM]	Lipophilic Efficiency (logD) (parental HEK cells; HEK Agonist Activity)	Lipophilic Efficiency (logP) (parental HEK cells; HEK Agonist Activity)	Averaged Max % Response (±St. Dev.) (parental HEK cells; HEK Agonist Activity) [%]	EC50 (parental HEK cells; [3]) [nM]	also measured
O=C(O)COc1cc(Br)c(Br)c(Br)c1O [SR-01000028953]	88.05 ± 4.24	5.29	1.52	1.36 ± 9.86	> 15300	–	–	–	–	–	–	–	–	–	Efficiency Ligand (GPR139): 0.54; Hill Slope (GPR139): 0.80; Lipophilic Efficiency (logD) (GPR139): 6.30; Lipophilic Efficiency (logP) (GPR139): 2.53
O=C(CN1CCCc2ccccc21)NNC(=O)Nc1ccc(Cl)c(Cl)c1 [SR-01000029575]	96.54 ± 7.56	1.09	1.08	7.49 ± 5.72	> 14300	3.35	3.34	0.79	0.38	78.1	–	–	–	–	–
CC(=O)c1cccc(C(C)(C)CC(=O)CNC(=O)c2ccccc2)c1 [SR-01000031674]	113.33 ± 7.65	–	–	–	–	6.57	6.57	0.44	0.50	–	2.46	2.46	35.54 ± 2.15	> 15000	–
COC(=O)c1ccc(CSc2nnc(N)s2)cc1 [SR-01000031964]	89.11 ± 2.96	2.26	2.26	13.73 ± 5.82	–	–	–	–	–	–	–	–	–	–	Efficiency Ligand (GPR139): 0.51; Hill Slope (GPR139): 1.27; Lipophilic Efficiency (logD) (GPR139): 4.00; Lipophilic Efficiency (logP) (GPR139): 4.00; EC50 (GPR139; HEK-GPR139 cells): 290 nM; EC50 (parental HEK cells; [4]): > 16000 nM
COc1ccc(CCNC(=O)CC(=O)NCCc2ccc(OC)cc2)cc1 [SR-01000034566]	100.73 ± 15.83	2.60	2.60	−4.69 ± 7.66	–	4.65	4.65	0.96	0.36	137	–	–	–	–	EC50 (parental HEK cells; [4]): > 15200 nM
Nc1ccc(C(=O)OCC(=O)NC2CCCc3ccccc32)cc1[N+](=O)[O-] (stereo not shown) [SR-01000034627]	64.98 ± 9.75	1.47	1.47	2.09 ± 12.58	> 15300	3.27	3.27	2.03	0.34	245	–	–	–	–	–
CC(NC(=O)COC(=O)c1ccccc1C(F)(F)F)c1ccccc1 (stereo not shown) [SR-01000037440]	90.68 ± 18.21	–	–	–	–	3.59	3.59	0.54	0.42	32.9	0.95	0.95	16.47 ± 8.15	> 14400	–
O=C(CN1C(=O)NC2(CCc3ccccc3C2)C1=O)Nc1ccccc1Oc1ccccc1 (stereo not shown) [SR-01000039980]	134.67 ± 13.58	–	–	–	–	4.01	4.01	0.55	0.34	10.4	0.84	0.84	39.53 ± 8.33	> 15300	–
CCn1c(C)nc2cc(C(=O)NNC(=O)Cc3cccc4ccccc34)ccc21 [SR-01000041378]	94.48 ± 15.59	–	–	–	–	4.29	4.29	0.61	0.35	46.1	1.79	1.79	−2.48 ± 2.57	> 14600	–
Cc1ccc(CNC(=O)COC(=O)c2ccc(Br)o2)cc1 [SR-01000042100]	100.32 ± 4.53	2.20	2.20	17.67 ± 3.11	> 14400	4.12	4.12	0.79	0.45	–	–	–	–	–	–
CCCCC(=O)OCC(=O)NCc1ccc(C)cc1 [SR-01000042109]	92.84 ± 12.11	2.18	2.18	21.12 ± 3.06	> 15000	–	–	–	–	–	–	–	–	–	Efficiency Ligand (GPR139): 0.47; Hill Slope (GPR139): 1.40; Lipophilic Efficiency (logD) (GPR139): 3.80; Lipophilic Efficiency (logP) (GPR139): 3.80; EC50 (GPR139; HEK-GPR139 cells): 363 nM
O=C(CN1C(=O)NC2(CCc3ccccc3C2)C1=O)Nc1cccc2ccccc12 (stereo not shown) [SR-01000042749]	74.83 ± 7.16	1.39	1.39	−8.38 ± 6.55	> 14100	–	–	–	–	–	–	–	–	–	Efficiency Ligand (GPR139): 0.29; Hill Slope (GPR139): 0.27; Lipophilic Efficiency (logD) (GPR139): 2.77; Lipophilic Efficiency (logP) (GPR139): 2.77; EC50 (GPR139; HEK-GPR139 cells): 585 nM
CC1CCCCN1C(=O)CN1C(=O)C2(CCc3ccccc3C2)NC1=S (stereo not shown) [SR-01000044433]	96.03 ± 12.11	2.90	2.90	12.49 ± 3.39	> 14300	–	–	–	–	–	–	–	–	–	Efficiency Ligand (GPR139): 0.33; Hill Slope (GPR139): 0.97; Lipophilic Efficiency (logD) (GPR139): 4.10; Lipophilic Efficiency (logP) (GPR139): 4.10; EC50 (GPR139; HEK-GPR139 cells): 896 nM
CCC1(c2ccc(Cl)cc2)NC(=O)N(CC(=O)N2CC3(C)CC2CC(C)(C)C3)C1=O (stereo not shown) [SR-01000045673]	101.61 ± 5.25	1.24	1.24	4.34 ± 4.74	> 14300	3.67	3.67	0.62	0.34	54.3	–	–	–	–	–
COc1cc(C(C)=O)ccc1OCC(=O)NC(C)CCc1ccccc1 (stereo not shown) [SR-01000048295]	102.89 ± 3.61	–	–	–	–	4.43	4.43	0.88	0.40	38.3	1.86	1.86	7.53 ± 4.49	> 14300	–
Cc1ccc(C2(C)NC(=O)N(CC(=O)NCC(C)C)C2=O)cc1 (stereo not shown) [SR-01000048367]	122.38 ± 5.77	–	–	–	–	5.64	5.64	0.74	0.45	36.5	3.00	3.00	8.71 ± 14.83	> 16000	–
CN(C(=O)CN1C(=O)NC(C)(c2ccc3ccccc3c2)C1=O)C1CCCCC1 (stereo not shown) [SR-01000048373]	118.34 ± 15.06	1.79	1.79	9.79 ± 7.30	–	3.96	3.96	0.66	0.34	96.7	–	–	–	–	EC50 (parental HEK cells; [4]): > 14300 nM
CCC1CCCCN1C(=O)CN1C(=O)NC(C)(c2ccc3ccccc3c2)C1=O (stereo not shown) [SR-01000048417]	111.02 ± 13.88	–	–	–	–	4.73	4.73	0.52	0.38	16.9	1.80	1.80	−4.34 ± 6.43	–	EC50 (parental HEK cells; HEK Agonist Activity, parental non-transfected HEK cells): > 14300 nM
C=C(C)CN(CC)C(=O)CN1C(=O)NC(C)(c2ccc3ccccc3c2)C1=O (stereo not shown) [SR-01000048841]	125.61 ± 14.18	–	–	–	–	5.59	5.59	0.27	0.41	6.7	2.25	2.25	15.49 ± 13.53	> 14800	–
